Data as given in article PMC5487684, “Safety, Pharmacokinetics, and Antiviral Activity of a Novel HIV Antiviral, ABX464, in Treatment-Naive HIV-Infected Subjects in a Phase 2 Randomized, Controlled Study” (Antimicrobial Agents and Chemotherapy, 2017).

System: HIV-infected subjects
Experiment: Safety and tolerability (TEAEs, ECG, laboratory) after repeated oral administration, phase 2a study
Assay type: in vivo, human
Details: for Subjects experiencing at least one TEAE: Abdominal pain / Subjects experiencing at least one TEAE: Arthralgia / Subjects experiencing at least one TEAE: Back pain / Subjects experiencing at least one TEAE: Diarrhea / Subjects experiencing at least one TEAE: Flank pain / Subjects experiencing at least one TEAE: Gastrointestinal disorders / Subjects experiencing at least one TEAE: Headache / Subjects experiencing at least one TEAE: Injury, poisoning, and procedural complications / Subjects experiencing at least one TEAE: Musculoskeletal and connective tissue disorders / Subjects experiencing at least one TEAE: Nausea / Subjects experiencing at least one TEAE: Neck pain / Subjects experiencing at least one TEAE: Nervous system disorders / Subjects experiencing at least one TEAE: Pain in extremity / Subjects experiencing at least one TEAE: Sciatica, back pain / Subjects experiencing at least one TEAE: Skin abrasion / Subjects experiencing at least one TEAE: Total / Subjects experiencing at least one TEAE: Upper abdominal pain / Subjects experiencing at least one TEAE: Vomiting: fasted
Experimental: Participants were assigned to one of eight groups; each group (with one exception) included eight subjects receiving either ABX464 (n = 6) or the corresponding placebo (n = 2) according to a randomization code. […] In the present study with HIV-infected subjects, the first dose administered was 25 mg, given once or 3 times a day over a 2- to 3-week period. This initial dose was therefore considered safe for assessment of the safety and tolerability of ABX464 after repeated oral administrations in subjects infected by HIV and determination of the potential effect on the HIV viral load.
The final dosing protocol for each of the eight groups was as follows: group 1, 25 mg every 3 days for 2 to 3 weeks under fasted conditions; group 2, 25 mg once a day (q.d.) for 2 to 3 weeks under fasted conditions; group 3, 50 mg once a day for 2 to 3 weeks under fasted conditions; group 4, 50 mg 3 times a day (t.i.d.) for 4 weeks under fed conditions; group 5, 75 mg once a day for 2 weeks under fed conditions; group 6, 100 mg once a day for 2 to 3 weeks under fasted conditions; group 7, 150 mg every 3 days for 2 to 3 weeks under fed conditions; and group 8, 150 mg once a day for 2 weeks under fed conditions. Per the study protocol, the treatment period was defined as 2 weeks. […] The decision to proceed to the next highest dose was determined by the data and safety monitoring board after review of the laboratory safety data, vital signs, ECGs, and adverse event reports from the group receiving the current dose after 2 weeks of treatment.
Subjects were hospitalized from the day prior to the first dose to at least the morning of day 2. They were orally dosed with 25-mg capsules of ABX464 with 240 ml water under fed or fasted conditions. According to the group, subjects were dosed with 1, 2, 3, 4, or 6 capsules to deliver 25 mg, 50 mg, 75 mg, 100 mg, or 150 mg product, respectively, or the same number of placebo capsules.
Safety assessments and laboratory tests were carried out according to the schedules described in Table S4 for groups dosed every day, every 3 days, and 3 times a day. Follow-up visits were scheduled for 7 days after the last dose and subsequently once every week in order to assess the elimination of the main ABX464 metabolite and to assess the viral load. Follow-up visits were terminated when the virus load was within 0.5 log of the baseline value or after 3 follow-up visits, whichever came first. Prior to the statistical analyses, AEs were coded using the Medical Dictionary for Regulatory Activities (MedDRA dictionary; last available version) in order to be tabulated by system organ class (SOC) and preferred term (PT). The AEs were analyzed according to the treatment emergence phase from the first study drug administration on day 1 up to 48 h after the last study drug administration. The number and percentage of subjects with at least one TEAE were tabulated by SOC and PT for each group and dose. The number of occurrences of TEAEs was also analyzed in the same way by SOC and PT for each group and dose, by grade of severity for each group and dose, and by level of causality to the study drug for each group and dose.

[1] = Group 1 (n = 6), 25 mg every 3 days, Mild
[2] = Group 1 (n = 6), 25 mg every 3 days, Moderate
[3] = Group 2 (n = 6), 25 mg q.d., Mild
[4] = Group 2 (n = 6), 25 mg q.d., Moderate

FC(F)(F)Oc1ccc(Nc2ccc3cccc(Cl)c3n2)cc1 [ABX464]
Nausea frequency (75 mg q.d.): 66.7%
Subjects with a skin rash episode (75 mg q.d. under fed conditions, one episode of moderate intensity): two
Subjects with vomiting episodes (150 mg every 3 days): 50.0%
Nausea frequency (150 mg q.d.): 100%
Subjects reporting vomiting (16 subjects overall, no vomiting episodes in placebo): 32%
Severity of adverse events (ABX464 treatment group): mild to moderate
TEAEs leading to treatment discontinuation (ABX464 treatment group): none of the TEAEs led to treatment discontinuation
Subjects reporting at least one episode of headache (ABX464 treatment groups): 56%
Subjects experiencing at least one TEAE: Abdominal pain [1]: 0 (0.0) No. (%)
Subjects experiencing at least one TEAE: Arthralgia [1]: 0 (0.0) No. (%)
Subjects experiencing at least one TEAE: Back pain [1]: 0 (0.0) No. (%)
Subjects experiencing at least one TEAE: Diarrhea [1]: 0 (0.0) No. (%)
Subjects experiencing at least one TEAE: Flank pain [1]: 0 (0.0) No. (%)
Subjects experiencing at least one TEAE: Gastrointestinal disorders [1]: 2 (33.3) No. (%)
Subjects experiencing at least one TEAE: Headache [1]: 0 (0.0) No. (%)
Subjects experiencing at least one TEAE: Injury, poisoning, and procedural complications [1]: 0 (0.0) No. (%)
Subjects experiencing at least one TEAE: Musculoskeletal and connective tissue disorders [1]: 0 (0.0) No. (%)
Subjects experiencing at least one TEAE: Nausea [1]: 1 (16.7) No. (%)
Subjects experiencing at least one TEAE: Neck pain [1]: 0 (0.0) No. (%)
Subjects experiencing at least one TEAE: Nervous system disorders [1]: 0 (0.0) No. (%)
Subjects experiencing at least one TEAE: Pain in extremity [1]: 0 (0.0) No. (%)
Subjects experiencing at least one TEAE: Sciatica, back pain [1]: 0 (0.0) No. (%)
Subjects experiencing at least one TEAE: Skin abrasion [1]: 0 (0.0) No. (%)
Subjects experiencing at least one TEAE: Total [1]: 2 (33.3) No. (%)
Subjects experiencing at least one TEAE: Upper abdominal pain [1]: 0 (0.0) No. (%)
Subjects experiencing at least one TEAE: Vomiting [1]: 1 (16.7) No. (%)
Subjects experiencing at least one TEAE: Abdominal pain [2]: 0 (0.0) No. (%)
Subjects experiencing at least one TEAE: Arthralgia [2]: 0 (0.0) No. (%)
Subjects experiencing at least one TEAE: Back pain [2]: 0 (0.0) No. (%)
Subjects experiencing at least one TEAE: Diarrhea [2]: 0 (0.0) No. (%)
Subjects experiencing at least one TEAE: Flank pain [2]: 0 (0.0) No. (%)
Subjects experiencing at least one TEAE: Headache [2]: 0 (0.0) No. (%)
Subjects experiencing at least one TEAE: Injury, poisoning, and procedural complications [2]: 0 (0.0) No. (%)
Subjects experiencing at least one TEAE: Musculoskeletal and connective tissue disorders [2]: 1 (16.7) No. (%)
Subjects experiencing at least one TEAE: Nausea [2]: 0 (0.0) No. (%)
Subjects experiencing at least one TEAE: Neck pain [2]: 0 (0.0) No. (%)
Subjects experiencing at least one TEAE: Nervous system disorders [2]: 0 (0.0) No. (%)
Subjects experiencing at least one TEAE: Pain in extremity [2]: 0 (0.0) No. (%)
Subjects experiencing at least one TEAE: Sciatica, back pain [2]: 1 (16.7) No. (%)
Subjects experiencing at least one TEAE: Skin abrasion [2]: 0 (0.0) No. (%)
Subjects experiencing at least one TEAE: Total [2]: 2 (33.3) No. (%)
Subjects experiencing at least one TEAE: Upper abdominal pain [2]: 0 (0.0) No. (%)
Subjects experiencing at least one TEAE: Vomiting [2]: 0 (0.0) No. (%)
Subjects experiencing at least one TEAE: Abdominal pain [3]: 0 (0.0) No. (%)
Subjects experiencing at least one TEAE: Arthralgia [3]: 0 (0.0) No. (%)
Subjects experiencing at least one TEAE: Back pain [3]: 1 (16.7) No. (%)
Subjects experiencing at least one TEAE: Diarrhea [3]: 1 (16.7) No. (%)
Subjects experiencing at least one TEAE: Flank pain [3]: 0 (0.0) No. (%)
Subjects experiencing at least one TEAE: Gastrointestinal disorders [3]: 2 (33.3) No. (%)
Subjects experiencing at least one TEAE: Headache [3]: 1 (16.7) No. (%)
Subjects experiencing at least one TEAE: Injury, poisoning, and procedural complications [3]: 0 (0.0) No. (%)
Subjects experiencing at least one TEAE: Musculoskeletal and connective tissue disorders [3]: 1 (16.7) No. (%)
Subjects experiencing at least one TEAE: Nausea [3]: 0 (0.0) No. (%)
Subjects experiencing at least one TEAE: Neck pain [3]: 0 (0.0) No. (%)
Subjects experiencing at least one TEAE: Nervous system disorders [3]: 1 (16.7) No. (%)
Subjects experiencing at least one TEAE: Pain in extremity [3]: 0 (0.0) No. (%)
Subjects experiencing at least one TEAE: Sciatica, back pain [3]: 0 (0.0) No. (%)
Subjects experiencing at least one TEAE: Skin abrasion [3]: 0 (0.0) No. (%)
Subjects experiencing at least one TEAE: Total [3]: 2 (33.3) No. (%)
Subjects experiencing at least one TEAE: Upper abdominal pain [3]: 0 (0.0) No. (%)
Subjects experiencing at least one TEAE: Vomiting [3]: 2 (33.3) No. (%)
Subjects experiencing at least one TEAE: Abdominal pain [4]: 0 (0.0) No. (%)
Subjects experiencing at least one TEAE: Arthralgia [4]: 0 (0.0) No. (%)
Subjects experiencing at least one TEAE: Back pain [4]: 0 (0.0) No. (%)
Subjects experiencing at least one TEAE: Diarrhea [4]: 0 (0.0) No. (%)
Subjects experiencing at least one TEAE: Flank pain [4]: 0 (0.0) No. (%)
Subjects experiencing at least one TEAE: Headache [4]: 0 (0.0) No. (%)
Subjects experiencing at least one TEAE: Injury, poisoning, and procedural complications [4]: 0 (0.0) No. (%)
Subjects experiencing at least one TEAE: Musculoskeletal and connective tissue disorders [4]: 0 (0.0) No. (%)
Subjects experiencing at least one TEAE: Nausea [4]: 0 (0.0) No. (%)
Subjects experiencing at least one TEAE: Neck pain [4]: 0 (0.0) No. (%)
Subjects experiencing at least one TEAE: Nervous system disorders [4]: 0 (0.0) No. (%)
Subjects experiencing at least one TEAE: Pain in extremity [4]: 0 (0.0) No. (%)
Subjects experiencing at least one TEAE: Sciatica, back pain [4]: 0 (0.0) No. (%)
Subjects experiencing at least one TEAE: Skin abrasion [4]: 0 (0.0) No. (%)
